Assay type in all cases: physicochemical
Series [1] in a line: Stability test of everolimus in various mixed solvents (Reference Example 1). The settings on record: 1 mg/mL everolimus in ethanol/acetone mixed solvents, 25° C., up to 24 hours; when the ratio of ethanol is increased (FIG. 2). The protocol:
(§1) It is to be noted that, in the analysis using liquid chromatography (HPLC) in the present test examples, the measurement was carried out under the following conditions. • Measurement column: Zorbax Eclipse XDB-C18, Rapid resolution HT, 100 mm×4.6 mm, 1.8 μm • Detector: ultraviolet absorption spectrophotometer (measurement wavelength: 278 nm) • Column temperature: 45° C. • Mobile phase A: 0.1% formic acid; mobile phase B: methanol/acetonitrile=50/50
The stability test of everolimus in various mixed solvents was carried out. Various mixed solvents were each added to everolimus, and the prepared solutions each containing 1 mg/mL everolimus were then stored at 25° C.
The remaining amount of everolimus immediately after initiation of the storage test, and also 1 hour, 3 hours, 6 hours and 24 hours after initiation of the storage test was measured by high performance liquid chromatography (HPLC), and the peak area ratio of everolimus at each time point was then calculated. The ratio of solvents used for each sample is shown in Table 2, and the results obtained by measuring the remaining ratio of everolimus are shown in FIG. 2.

Series [2] can be described thus: Stability test of everolimus with hypromellose in ethanol:acetone (=9:1) (Reference Example 2). The settings on record: 10 mg everolimus with 150 mg hypromellose in 10 mL ethanol:acetone (=9:1), 25° C., up to 6 hours (FIG. 3). The protocol:
as §1
The stability test of everolimus comprising a water-soluble polymeric carrier in a mixed solution of ethanol and acetone (=9:1) was carried out. 10 mL of the mixed solution of ethanol and acetone (=9:1) was added to 150 mg of hypromellose (TC-5 E Type, manufactured by Shin-Etsu Chemical Co., Ltd.), and the obtained mixture was then stirred. To this mixture, 10 mg of everolimus was added, and the thus prepared mixture was then stored at 25° C.
The remaining amount of everolimus immediately after initiation of the storage test, and also 1 hour, 3 hours and 6 hours after initiation of the storage test was measured by high performance liquid chromatography (HPLC), and the peak area ratio of everolimus at each time point was then calculated.

A short description of series [3]: Stability test of everolimus with hypromellose in an ethanol solution (Reference Example 3). As to conditions: 10 mg everolimus with 150 mg hypromellose and 15 mg anhydrous lactose in 10 mL ethanol, 25° C.; immediately after the production (FIG. 4). The protocol:
as §1
The stability test of everolimus comprising a water-soluble polymeric carrier in an ethanol solution was carried out. 10 mL of ethanol was added to 150 mg of hypromellose (TC-5 E Type, manufactured by Shin-Etsu Chemical Co., Ltd.), and the obtained mixture was then stirred. To this mixture, 10 mg of everolimus was added, followed by stirring, and thereafter, 15 mg of anhydrous lactose was added to the reaction mixture, and the obtained mixture was further stirred. The thus prepared mixture was stored at 25° C.
The remaining amount of everolimus immediately after initiation of the storage test, and also 0.75 hours and 2 hours after initiation of the storage test was measured by high performance liquid chromatography (HPLC), and the peak area ratio of everolimus at each time point was then calculated.

As for `CO[C@H]1C[C@@H]2CC[C@@H](C)[C@@](O)(O2)C(=O)C(=O)N2CCCC[C@H]2C(=O)O[C@H]([C@H](C)C[C@@H]2CC[C@@H](OCCO)[C@H](OC)C2)CC(=O)[C@H](C)/C=C(\C)[C@@H](O)[C@@H](OC)C(=O)[C@H](C)C[C@H](C)/C=C/C=C/C=C/1C` [everolimus, 40-O-(2-hydroxyethyl)rapamycin], the “purity of everolimus in solution (trend in words)” value in series [1] is reported as “decreased”. In series [2], the “stability of everolimus in mixture (in words)” value is on record as “improved”. The “remaining ratio of everolimus” value in series [3] is on record as “less than 96%”.

(Values after patent publication US20190231755A1, “METHOD FOR PRODUCING SOLID DISPERSION COMPRISING RAPAMYCIN DERIVATIVE” (NIPPON KAYAKU KABUSHIKI KAISHA, priority 2016, published 2019).)
